The values below come from patent US10774046B2, “Inhibitors for the treatment of cancer and related methods” (UNIVERSITY OF LOUISVILLE RESEARCH FOUNDATION, INC., priority 2017, dated 2020).

Series [1] has as its target human recombinant PFKFB4 (Homo sapiens, UniProt Q16877). Briefly: ADP-Glo kinase assay. It counts as biochemical. As for the experimental part: The fructose-6-phosphate kinase activity of human recombinant PFKFB4 in the presence of DMSO±indicated 5MPN concentrations was assayed as previously described. The activity of 5MPN against 97 kinases was examined using a commercially available active-site dependent competition binding assay core service (KINOMEscanEDGE) that quantifies the capacity of test agents to compete with an immobilized, active-site directed ligand using a DNA-tagged kinase and immobilized ligand and compound. For example, enzyme inhibition was studied using an ADP-Glo assay. The effect of MPN-2 on the activity of recombinant human PFKFB4 enzyme was examined in an ADP-Glo assay (Promega), which measures ADP formed from a kinase reaction. ADP is converted into ATP, which is converted into light by a luciferase. PFKFB4 protein was exposed to MPN-2 at indicated concentrations in the presence of ATP and fructose-6-phosphate and following manufacturer's instructions, ADP-Glo and kinase detections reagents were added. The data are shown as the decrease in luminescence caused by MPN-2 relative to DMSO.
Method: The efficacy of Formula (VIII) in inhibition of the kinase activity of the PFKFB4 enzyme was examined by exposing recombinant human PFKFB4 protein to Formula (VIII) in the ADP-Glo kinase assay (Promega) which measures ADP formed through a kinase reaction. Briefly, recombinant protein, ATP, substrate and Formula (VIII) were incubated together for the kinase reaction followed by the addition of ADP-Glo reagent, used to terminate the kinase reaction. Lastly, a kinase detection reagent was added to convert the newly formed ADP to ATP which was measured by a luciferase reaction. Data are shown in FIG. 10 as the decrease in luminescence caused by Formula (VIII) relative to DMSO.
Method: The efficacy of FB4-32 and FB4-35 in inhibition of the kinase activity of the PFKFB4 enzyme was examined by exposing recombinant human PFKFB4 protein to FB4-32 and FB4-35 in the ADP-Glo kinase assay (Promega) which measures ADP formed through a kinase reaction. Briefly, recombinant protein, ATP, substrate and FB4-32 or FB4-35 were incubated together for the kinase reaction followed by the addition of ADP-Glo reagent to terminate the kinase reaction. Last, a kinase detection reagent was added to convert the newly formed ADP to ATP which was measured by a luciferase reaction. Data are shown as the decrease in luminescence caused by FB4-32 and FB4-35 relative to DMSO.
In general terms: ADP-Glo first removes unused ATP, then detects ADP through luciferase.

The test system of series [2] is H460 cells. The series is described as follows: F2,6BP measurement in cells (coupled enzyme reaction). It counts as cell-based, human. The settings on record: H460, effects at 2.5 μM. The procedure: Cells or tissues were prepared as previously described and F2,6BP content measured using a coupled enzyme reaction following a modification of the method of Van Schaftingen et al (VAN SCHAFTINGEN E et al. “A kinetic study of pyrophosphate:fructose-6-phosphate phosphotransferase from potato tubers. Application to a microassay of fructose 2,6-bisphosphate” Eur J Biochem (1982) Vol. 129, No. 1, pp. 191-195) and normalized to total cellular protein measured by the bicinchoninic acid assay (BCA, Thermo Scientific). For example, H460 cells were exposed to the indicated concentrations of MPN-2. In order to measure F2,6BP, cells were harvested, washed with PBS, lysed in NaOH/Tris acetate by heating at 80° C. and lysates neutralized to pH 7.2. F2,6BP content was measured using a coupled enzyme reaction following a modified method of Van Schaftingen et al (VAN SCHAFTINGEN E et al. “A kinetic study of pyrophosphate:fructose-6-phosphate phosphotransferase from potato tubers. Application to a microassay of fructose 2,6-bisphosphate” Eur J Biochem (1982) Vol. 129, No. 1, pp. 191-195). The F2,6BP concentration was normalized to total cellular protein measured by the bicinchoninic acid assay (BCA, Thermo Scientific). All data are expressed as the mean±SD of three experiments. Statistical significance was assessed by the two-sample t test (independent variable).
Method: In order to measure F26BP, H460 cells were exposed to increasing concentrations of the agents and were harvested, washed with PBS, lysed in NaOH/Tris acetate by heating at 80° C. and lysates neutralized to pH 7.2. F26BP content was measured using a coupled enzyme reaction following a modified method of Van Schaftingen et al. (Eur J Biochem. 1982; 129(1):191-195). The F26BP concentration was normalized to total cellular protein measured by the bicinchoninic acid assay (BCA, Thermo Scientific).

Series [3] has as its system H460 cells. The series is described as follows: glycolysis assay (3H2O from 5-[3H]glucose). The series is classed as cell-based, human. Conditions: H460. As for the experimental part: H460 cells were exposed to the indicated concentrations of MPN-2 and glycolysis production was examined. Cells growing in 6-well plates were incubated in 500 μl of complete medium containing 1 μCi of 5-[^3H]glucose per well for 60 min in 5% CO2 at 37° C. Media was collected, ^3H2O formed via glycolysis from the 5-[^3H]glucose measured and counts normalized as previously described. For example, the medium was then collected and centrifuged to pellet any suspended cells. To separate the ^3H2O formed via glycolysis from the 5-[^3H]glucose added to the medium, an evaporation technique in a sealed system was utilized. Briefly, 150 μl aliquots of medium were added to open tubes that were placed upright inside scintillation vials containing 1 ml of H2O. The scintillation vials were sealed, and the ^3H2O produced by glycolysis through enolase and released to the medium was allowed to equilibrate with the H2O in the outer vial for 48 h at 37° C. The amounts of ^3H2O that had diffused into the surrounding H2O was measured on a Tri-Carb 2910 liquid scintillation analyzer (Perkin Elmer) and compared with ^3H2O and 5-[^3H]glucose standards. Protein concentration was determined using the BCA assay and counts were normalized to protein concentration. All data are expressed as the mean±SD of three experiments. Statistical significance was assessed by the two-sample t test (independent variable).
Method: To examine glycolysis, H460 cells growing in 6-well plates were incubated in 500 μl of complete medium containing 1 μCi of 5-[^3H] glucose per well for 60 min in 5% CO2 at 37° C. The medium was then collected and centrifuged to pellet any suspended cells. To separate the ^3H2O formed via glycolysis from the 5-[^3H]glucose added to the medium, an evaporation technique in a sealed system was utilized. Briefly, 150 μl aliquots of medium were added to open tubes that were placed upright inside scintillation vials containing 1 ml of H2O. The scintillation vials were sealed, and the ^3H2O produced by glycolysis through enolase and released to the medium was allowed to equilibrate with the H2O in the outer vial for 48 h at 37° C. The amounts of ^3H2O that had diffused into the surrounding H2O was measured on a Tri-Carb 2910 liquid scintillation analyzer (Perkin Elmer) and compared with ^3H2O and 5-[^3H]glucose standards. Protein concentration was determined using the BCA assay and counts were normalized to protein concentration (previously described in CHESNEY et al. Oncotarget. 2014; 5(16):6670-6686.)

Series [4] relates to H460 cells. Briefly: proliferation, viable cell count by trypan blue exclusion. The series is classed as cell-based, human. Conditions: for proliferation (cell counts relative to DMSO): H460, counts at 72 hours shown. As for the experimental part: Cells were incubated in 20% trypan blue (Sigma) for 5 minutes. Cells excluding trypan blue were counted using a standard hemocytometer (Hausser Scientific) to determine total numbers of viable cells. Data are expressed as mean±SD of three experiments.
H460 non-small cell lung cancer cells were plated in 24 well plates and exposed to increasing concentrations of the indicated inhibitors of Formula IV (FBR1-02 corresponds to
DMSO was used as vehicle. After 24, 48 and 72 hours of exposure, cells were detached and viable cells were counted by Trypan blue exclusion (representative counts at 48 hours shown).
Method: H460 cells were plated in 24 well plates and exposed to increasing concentrations of FB4-31 to FB4-36 and 5MPN. DMSO was used as a vehicle. After 24, 48 and 72 hours of exposure, cells were detached, and viable cells were counted by Trypan blue exclusion (representative counts at 72 hours shown).

A short description of series [5]: pharmacokinetic profile after IV and oral administration. The series is classed as in vivo. Conditions: mice. As for the experimental part:
Method: The pharmacokinetic profile of FB4-32 was determined in mice dosed orally and IV with FB4-32. Nine time points (n=3 per time point) were used to determine indicated PK parameters calculated using WinNonLin v5.0. Plasma samples were extracted using acetonitrile and analyzed by LC/MS-MS using a PhenomexSynergi Polar-RP 4 micron 50×2.0 mm column eluted with a biphasic mobile phase (0.5% formic acid in acetonitrile and water).

Chain of human recombinant PFKFB4 (Q16877 whole entry): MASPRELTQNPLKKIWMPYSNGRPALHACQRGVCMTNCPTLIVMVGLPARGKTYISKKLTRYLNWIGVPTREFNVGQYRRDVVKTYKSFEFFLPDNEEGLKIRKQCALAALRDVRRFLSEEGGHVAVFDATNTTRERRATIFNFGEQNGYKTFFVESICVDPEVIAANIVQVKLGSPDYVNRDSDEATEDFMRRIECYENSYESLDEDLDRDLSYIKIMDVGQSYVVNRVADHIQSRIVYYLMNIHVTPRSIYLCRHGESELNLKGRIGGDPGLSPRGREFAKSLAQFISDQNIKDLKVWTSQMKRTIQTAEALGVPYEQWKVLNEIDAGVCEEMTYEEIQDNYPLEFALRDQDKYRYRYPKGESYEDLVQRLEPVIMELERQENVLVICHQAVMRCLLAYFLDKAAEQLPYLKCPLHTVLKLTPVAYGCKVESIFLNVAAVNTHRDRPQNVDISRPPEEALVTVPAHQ

As for `COc1cccc2c(NCCCCCCNC(=O)C(F)(F)F)ccnc12` [FB4-32, 2,2,2-Trifluoro-N-(6-((8-methoxyquinolin-4-yl)amino)hexyl)acetamide], the “kinase activity of the PFKFB4 enzyme (luminescence relative to DMSO)” value in series [1] is on record as “inhibited”. Besides, the “F26BP (normalized to cellular protein)” value in series [2] is on record as “decrease”. The “glycolysis (production of 3H2O relative to DMSO)” value in series [3] is recorded as “dose-dependent decrease”. Besides, the “proliferation (cell counts relative to DMSO)” value in series [4] is given as “decreased the proliferation of H460 cells in vitro with higher potency than 5MPN”. The oral bioavailability entry in series [5] was “found to have oral bioavailability”.

Consider `COc1cccc2c(NCCCCCNC(=O)CBr)ccnc12` [FB4-35, 2-Bromo-N-(5-((8-methoxyquinolin-4-yl)amino)pentyl)acetamide], for which, in series [1], the “kinase activity of the PFKFB4 enzyme (luminescence relative to DMSO)” value is “inhibited”. In addition, in series [2], the “F26BP (normalized to cellular protein)” value was “decrease”. Moreover, in series [3], the “glycolysis (production of 3H2O relative to DMSO)” value is reported as “dose-dependent decrease”. For the same compound, the “proliferation (cell counts relative to DMSO)” value in series [4] is “decreased the proliferation of H460 cells in vitro with higher potency than 5MPN”.

As for `O=[N+]([O-])OCCCCCNc1ccnc2ccccc12` [FBR1-02], the proliferation result in series [4] (H460, Formula IV compounds, counts at 48 hours shown) is “decreased proliferation”.
